Measured values taken from patent US11597724B2, “Herbicidally active 3-phenylisoxazoline-5-carboxamides of tetrahydro and dihydrofuran carboxylic acids and esters” (Bayer Aktiengesellschaft, priority 2017, dated 2023).

Assays:
Format in all cases: in vivo
Abutilon theophrasti = experiment: Post-emergence herbicidal activity against ABUTH; details: dosage 320 g/ha, rated about 3 weeks after treatment; for pest or weed control at 320 g/ha: Abutilon theophrasti, 504 h
How it was run: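 Greenhouse-grown plants treated at one-leaf stage, 2 to 3 weeks after sowing, with WP or EC formulations sprayed as aqueous suspension/emulsion plus 0.5% additive at 600 l/ha. Activity rated visually about 3 weeks later versus untreated controls (100% = plants dead, 0% = like control).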

Lolium rigidum = experiment: Post-emergence herbicidal activity against LOLRI; details: dosage 320 g/ha, rated about 3 weeks after treatment; for pest or weed control at 320 g/ha: Lolium rigidum, 504 h
How it was run: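 Greenhouse-grown plants sprayed post-emergence at the one-leaf stage, 2 to 3 weeks after sowing, with WP or EC formulations plus 0.5% additive at 600 l/ha water. Activity rated visually after about 3 weeks versus untreated controls (100% = plants dead, 0% = like control).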

Viola tricolor = experiment: Post-emergence herbicidal activity against VIOTR; details: dosage 320 g/ha, rated about 3 weeks after treatment; for pest or weed control at 320 g/ha: Viola tricolor, 504 h
How it was run: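 Greenhouse plants in sandy loam treated at one-leaf stage, 2 to 3 weeks after sowing, by spraying WP or EC formulations with 0.5% additive at 600 l/ha water. Activity rated visually after about 3 weeks versus untreated controls, 100% = plants dead, 0% = like control.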

Alopecurus myosuroides = experiment: Pre-emergence herbicidal activity against ALOMY; details: dosage 80 g/ha, scored visually after about 3 weeks vs untreated controls (100% = plants have died, 0% = like control plants); for pest or weed control at 80 g/ha: Alopecurus myosuroides, 504 h
Excerpt: (§1) 1. Pre-Emergence Herbicidal Action and Crop Plant Compatibility Seeds of monocotyledonous and dicotyledonous weed plants and crop plants are placed in plastic or wood fiber pots and covered with soil. The compounds of the invention, formulated in the form of wettable powders (WP) or as emulsion concentrates (EC), are then applied onto the surface of the covering soil as aqueous suspension or emulsion with addition of 0.5% additive at a water application rate of 600 l/ha (converted). After the treatment, the pots are placed in a greenhouse and kept under good growth conditions for the trial plants. After about 3 weeks, the effect of the preparations is scored visually in comparison with untreated controls as percentages. For example, 100% activity=the plants have died, 0% activity=like control plants. ABUTH: Abutilon theophrasti ALOMY: Alopecurus myosuroides

[1] = Post-emergence treatment, summary over harmful plants; details: 504 h, application rate of 0.32 kg of active substance or less per hectare, read-out: herbicidal action, post-emergence treatment (very good herbicidal activity)
Protocol: 2. Post-Emergence Herbicidal Action and Crop Plant Compatibility
Seeds of monocotyledonous and dicotyledonous weeds and crop plants are placed in sandy loam in plastic or wood-fiber pots, covered with soil and cultivated in a greenhouse under controlled growth conditions. 2 to 3 weeks after sowing, the test plants are treated at the one-leaf stage. The compounds of the invention, formulated in the form of wettable powders (WP) or as emulsion concentrates (EC), are then sprayed onto the green parts of the plants as aqueous suspension or emulsion with addition of 0.5% additive at a water application rate of 600 l/ha (converted). After the test plants had been kept in the greenhouse under optimum growth conditions for about 3 weeks, the activity of the preparations is rated visually in comparison to untreated controls. For example, 100% activity=the plants have died, 0% activity=like control plants.
As shown by the results, compounds according to the invention such as, for example, the compounds No. I-35 and other compounds from the tables (for example I-28, I-38, I-01, I-19, I-36, I-29, I-32, I-11, I-12, I-37, I-06, I-09, I-33, I-34, I-13, I-04, I-26, I-21, I-30, I-05, I-03, I-20, I-27, I-14, I-10, I-23, I-07, I-25, I-02, I-08, I-24, I-41, I-42, I-43, I-44, I-46, I-49, I-54, I-55, I-56) have, when used for post-emergence treatment, very good herbicidal activity (80% to 100% herbicidal action) against harmful plants such as Abutilon theophrasti, Alopecurus myosuroides, Amaranthus retroflexus, Avena fatua, Echinochloa crus-galli, Hordeum murinum, Lolium rigidum, Pharbitis purpurea, Polygonum convolvulus, Setaria viridis, Stellaria media, Veronica persica and Viola tricolor at an application rate of 0.32 kg of active substance or less per hectare.

Veronica persica = experiment: Pre-emergence herbicidal activity against VERPE; details: Veronica persica, 504 h, dosage 80 g/ha
Excerpt: as §1, with “STEME: Stellaria media VERPE: Veronica persica” for “ABUTH: Abutilon theophrasti ALOMY: Alopecurus myosuroides”

Row | Structure (SMILES) | pest or weed control at 320 g/ha (Abutilon theophrasti) | pest or weed control at 320 g/ha [1] | pest or weed control at 320 g/ha (Lolium rigidum) | pest or weed control at 320 g/ha (Viola tricolor) | pest or weed control at 80 g/ha (Alopecurus myosuroides) | also measured
1 | CC1(C(=O)NC2COC(C(=O)O)C2)CC(c2cc(F)cc(F)c2)=NO1 (mixture of isomers) [I-41] | – | – | – | – | – | Post-emergence herbicidal activity against ABUTH in % (Abutilon theophrasti): 80%; Post-emergence herbicidal activity against LOLRI in % (Lolium rigidum): 100%; Post-emergence herbicidal activity against VIOTR in % (Viola tricolor): 80%; Pre-emergence herbicidal activity against ALOMY in % (Alopecurus myosuroides): 100%
2 | C=C[C@]1(C(=O)N[C@@H]2CO[C@@H](C(=O)OC)C2)CC(c2cc(F)cc(F)c2)=NO1 (mixture of isomers) [I-56, methyl trans-4-[[(5S)-3-(3,5-difluorophenyl)-5-vinyl-4H-isoxazole-5-carbonyl]amino]tetrahydrofuran-2-carboxylate] | 90% | 80 to 100% | 90% | 90% | – | –
3 | COC(=O)[C@H]1C[C@@H](NC(=O)C2(C(F)(F)F)CC(c3cc(F)cc(F)c3)=NO2)CO1 (relative stereo) [I-06, methyl cis-4-[[3-(3,5-difluorophenyl)-5-(trifluoromethyl)-4H-isoxazole-5-carbonyl]amino]tetrahydrofuran-2-carboxylate] | – | 80 to 100% | – | 90% | 80% | –
4 | COC(=O)C1COCC1NC(=O)C1(OC)CC(c2cc(F)cc(F)c2)=NO1 (stereo not shown) [I-27, methyl 4-[[3-(3,5-difluorophenyl)-5-methoxy-4H-isoxazole-5-carbonyl]amino]tetrahydrofuran-3-carboxylate] | – | 80 to 100% | – | 80% | 90% | pest or weed control at 80 g/ha (Veronica persica): 90%
5 | CC(C)OC(=O)[C@H]1C[C@@H](NC(=O)C2(C)CC(c3cccc(F)c3)=NO2)CO1 (mixture of isomers) [I-32, isopropyl cis-4-[[(5RS)-3-(3-fluorophenyl)-5-methyl-4H-isoxazole-5-carbonyl]amino]tetrahydrofuran-2-carboxylate] | 80% | 80 to 100% | 100% | – | 100% | –
6 | C=C[C@]1(C(=O)NC2COCC2C(=O)OC)CC(c2cc(F)cc(F)c2)=NO1 (stereo partly drawn) [I-26, methyl 4-[[(5S)-3-(3,5-difluorophenyl)-5-vinyl-4H-isoxazole-5-carbonyl]amino]tetrahydrofuran-3-carboxylate] | – | 80 to 100% | – | 80% | 100% | pest or weed control at 80 g/ha (Veronica persica): 100%
7 | C=CC1(C(=O)N[C@H]2CO[C@@H](C(=O)OC)C2)CC(c2cccc(F)c2)=NO1 (relative stereo) [I-07, methyl cis-4-[[3-(3-fluorophenyl)-5-vinyl-4H-isoxazole-5-carbonyl]amino]tetrahydrofuran-2-carboxylate] | – | 80 to 100% | – | – | – | –
8 | COC(=O)[C@@]1(OC)C[C@@H](NC(=O)C2(C)CC(c3cccc(F)c3)=NO2)CO1 (stereo partly drawn) [I-47, methyl (2R,4R)-4-[[3-(3-fluorophenyl)-5-methyl-4H-isoxazole-5-carbonyl]amino]-2-methoxytetrahydrofuran-2-carboxylate] | 80% | – | 100% | 80% | – | –
9 | COC(=O)[C@H]1C[C@H](NC(=O)[C@@]2(C)CC(c3cc(F)cc(F)c3)=NO2)CO1 (mixture of isomers) [I-55, methyl trans-4-[[(5R)-3-(3,5-difluorophenyl)-5-methyl-4H-isoxazole-5-carbonyl]amino]tetrahydrofuran-2-carboxylate] | 90% | 80 to 100% | 90% | 90% | – | –
10 | CC1(C(=O)N[C@H]2CO[C@@H](C(=O)OCc3ccccc3)C2)CC(c2cccc(F)c2)=NO1 (mixture of isomers) [I-34, benzyl cis-4-[[(5RS)-3-(3-fluorophenyl)-5-methyl-4H-isoxazole-5-carbonyl]amino]tetrahydrofuran-2-carboxylate] | 80% | 80 to 100% | 90% | – | 100% | –
11 | C=CC1(C(=O)NC2=C(C(=O)OCC)COC2)CC(c2cc(F)cc(F)c2)=NO1 (stereo not shown) [I-23, ethyl 4-[[3-(3,5-difluorophenyl)-5-vinyl-4H-isoxazole-5-carbonyl]amino]-2,5-dihydrofuran-3-carboxylate] | – | 80 to 100% | 90% | – | 90% | –
12 | CCOC(=O)[C@H]1C[C@@H](NC(=O)C2(C)CC(c3cccc(F)c3)=NO2)CO1 (mixture of isomers) [I-30, ethyl cis-4-[[(5RS)-3-(3-fluorophenyl)-5-methyl-4H-isoxazole-5-carbonyl]amino]tetrahydrofuran-2-carboxylate] | – | 80 to 100% | 100% | – | 100% | –
13 | C=CC1(C(=O)N[C@H]2CO[C@@H](C(=O)OC)C2)CC(c2cc(Cl)cc(Cl)c2)=NO1 (relative stereo) [I-03, methyl cis-4-[[3-(3,5-dichlorophenyl)-5-vinyl-4H-isoxazole-5-carbonyl]amino]tetrahydrofuran-2-carboxylate] | – | 80 to 100% | – | – | – | –
14 | COC(=O)[C@H]1C[C@@H](NC(=O)C2(OC)CC(c3cc(C)cc(Br)c3)=NO2)CO1 (relative stereo) [I-08, methyl cis-4-[[3-(3-bromo-5-methylphenyl)-5-methoxy-4H-isoxazole-5-carbonyl]amino]tetrahydrofuran-2-carboxylate] | – | 80 to 100% | – | 80% | – | pest or weed control at 80 g/ha (Veronica persica): 90%
15 | COC(=O)[C@H]1C[C@@H](NC(=O)C2(C)CC(c3cc(C)cc(Br)c3)=NO2)CO1 (relative stereo) [I-04, methyl cis-4-[[3-(3-bromo-5-methylphenyl)-5-methyl-4H-isoxazole-5-carbonyl]amino]tetrahydrofuran-2-carboxylate] | – | 80 to 100% | – | 80% | – | –
16 | COC(=O)C1=C[C@H](NC(=O)C2(C)CC(c3cccc(F)c3)=NO2)CO1 (stereo partly drawn) [I-39, methyl (3S)-3-[[3-(3-fluorophenyl)-5-methyl-4H-isoxazole-5-carbonyl]amino]-2,3-dihydrofuran-5-carboxylate] | 80% | – | 100% | 80% | – | –
17 | COC(=O)[C@H]1C[C@@H](NC(=O)C2(OC)CC(c3ccccc3)=NO2)CO1 (relative stereo) [I-14, methyl cis-4-[(5-methoxy-3-phenyl-4H-isoxazole-5-carbonyl)amino]tetrahydrofuran-2-carboxylate] | – | 80 to 100% | – | – | – | –
18 | COC(=O)[C@H]1C[C@@H](NC(=O)C2(OC)CC(c3cc(F)cc(F)c3)=NO2)CO1 (relative stereo) [I-05, methyl cis-4-[[3-(3,5-difluorophenyl)-5-methoxy-4H-isoxazole-5-carbonyl]amino]tetrahydrofuran-2-carboxylate] | – | 80 to 100% | – | – | – | –
